Experimental findings from patent publication US20180186796A1, “COMPOUNDS AND USES THEREOF” (LEAD DISCOVERY SIENA S.R.L., priority 2014, published 2018) are described below.

For one series, the target named is recombinant Fyn (Homo sapiens, UniProt P06241). In words: Enzymatic assay on isolated Fyn kinase.
A short description of series [1]: Stability tests in phosphate buffer and methanol. As to conditions: 20° C., 48 h incubation. It is filed as physicochemical.
Series [2] can be described thus: Enzymatic stability in human plasma. In kind it is in vitro ADME. The conditions noted are these: for half-life at 100 μM: human, pooled human plasma diluted with phosphate buffer, pH 7.4.
The nature of a further series: Water solubility assay. The conditions noted are these: water, 20 °C, thermodynamic from solid.
The next series is described as follows: PAMPA, BBB permeability. The conditions noted are these: for PAMPA BBB (MR %): Membrane Retention; for Papp at 5 h, 0.5 mM: PAMPA, pH 7.4. (In general: In PAMPA a lipid-coated filter parts donor from acceptor wells.)
Series [3] in a line: Microsomal stability assay. The conditions noted are these: percentage of unmodified drug, Table 8.
Series [4] can be described thus: PAMPA, intestinal (GI) permeability. The conditions noted are these: for PAMPA GI (MR %): Membrane Retention; for Papp at 5 h, 0.5 mM: PAMPA, pH 7.4.
Protocol: (§1) Donor solution (0.5 mM) was prepared by diluting 1 mM dimethylsulfoxide (DMSO) compound stock solution using phosphate buffer (pH 7.4, 0.025 M). […] Donor solution (150 μL) was added to each well of the filter plate. To each well of the acceptor plate were added 300 μL of solution (50% DMSO in phosphate buffer). All compounds were tested in three different plates on different days. The sandwich was incubated for 5 h at room temperature under gentle shaking. After the incubation time, the plates were separated, and samples were taken from both receiver and donor sides and analyzed using LC with UV detection at 280 nm.
(§2) Permeability (Papp) for PAMPA was calculated according to the following equation, obtained from Wohnsland and Faller^27 and Sugano et al.^28 equation with some modification in order to obtain permeability values in cm s^−1,
(§3) Drug concentration is estimated by using the peak area integration. Membrane retentions (%) were calculated according to the following equation:
(§4) where r is the ratio between drug concentration in the acceptor and equilibrium concentration, D, A, and Eq represented drug concentration in the donor, acceptor and equilibrium solution, respectively.
(§5) Donor solution of tested compounds (0.5 mM) was prepared by diluting 1 mM dimethylsulfoxide (DMSO) compound stock solution using phosphate buffer (pH 7.4, 25 mM). […] Donor solution (150 μL) was added to each well of the filter plate. To each well of the acceptor plate were added 300 μL of solution (50% DMSO in phosphate buffer). Compounds was tested in three different plates on different days. The sandwich was incubated for 5 h at room temperature under gentle shaking.
(§6) Permeability (Papp) for PAMPA was calculated according to the following equation, obtained from Wohnsland and Faller and Sugano et al.^27, 28.
(§7) Drug concentration is estimated by using the peak area integration. Membrane retention (%) was calculated according to the following equation:
[5] abbreviates: methanol, read-out: Stability MeOH t1/2.
Where [6] appears, read: phosphate buffer, pH 7.4, read-out: Stability PBS pH 7.4 t1/2.
The mark [7] stands for this setting: 37° C., read-out: Stability Human Plasma t1/2 (converted).
Where [8] appears, read: read-out: t1/2 in human plasma (converted).

Molecules are shown by their SMILES. pKi: −log10 of the molar value. Converted amounts (≈) assume the structure as drawn. Where a name gives a salt, the structure may show the parent alone. Read-outs that look alike come from different tables or passages of the source.

recombinant Fyn, sequence (P06241 whole entry, looked up): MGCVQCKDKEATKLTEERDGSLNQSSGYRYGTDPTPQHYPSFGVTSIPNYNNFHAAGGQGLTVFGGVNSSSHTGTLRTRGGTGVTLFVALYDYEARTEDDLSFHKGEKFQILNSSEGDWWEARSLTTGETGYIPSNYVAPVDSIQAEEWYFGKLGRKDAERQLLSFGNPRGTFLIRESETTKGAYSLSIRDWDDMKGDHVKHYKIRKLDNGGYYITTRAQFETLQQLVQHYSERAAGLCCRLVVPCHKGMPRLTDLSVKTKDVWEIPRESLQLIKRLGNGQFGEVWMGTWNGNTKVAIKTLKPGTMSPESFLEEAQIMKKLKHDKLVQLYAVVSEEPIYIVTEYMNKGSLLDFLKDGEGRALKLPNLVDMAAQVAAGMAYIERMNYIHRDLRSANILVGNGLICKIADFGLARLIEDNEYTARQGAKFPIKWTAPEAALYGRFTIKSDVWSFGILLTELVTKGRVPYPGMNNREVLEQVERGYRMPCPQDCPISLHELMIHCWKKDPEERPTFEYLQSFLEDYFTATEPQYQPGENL
Protocol for PAMPA, BBB permeability: as §1, §2, §3, §4, §5, §6, §7
Protocol for recombinant Fyn: Kinase assays were performed in presence of 200 μM ATP and 100 μM peptide substrate. All inhibition assays were conducted with 0.01 μg active kinase, 0.33 μmol [^γ32P]ATP, 60 mM HEPES-NaOH pH 7.5, 3 μM Na-orthovanadate, 1.2 mM DTT, 50 μg/ml PEG20.0000, 10 mM magnesium acetate, 0.004% NP40 and 10% DMSO in a final volume of 10 μL. Fyn and inhibitors were preincubated in ice for 5 min; after addition of the substrates the reaction was conducted at 30° C. for 10 min. The reaction was stopped by adding 5 μL of 3% phosphoric acid. Aliquots (10 μL) were then transferred into a P30 Filtermat (PerkinElmer), washed five times with 75 mM phosphoric acid and once with acetone for 5 minute. The filter was dried and transferred to a sealable plastic bag, and scintillation cocktail (4 mL) was added. Spotted reactions were read in a MicroBeta Liquid (Perkinelmer) scintillation counter. The ID50 values were obtained according to the following equation:
Ki values toward recombinant Fyn were calculated using the equation:
according to a competitive mechanism of inhibition toward ATP substrate, where [SATP] is the concentration of ATP. Curve fitting was performed with the program GraphPad Prism version 5.00.

The melting point is the temperature, or range, at which the solid turns liquid. For the compound `Nc1ncnc2c1c(-c1ccccc1)nn2CC(Cl)c1ccccc1` (stereo not drawn) (as salt: hydrochloride) [Si244, 1-(2-Chloro-2-phenylethyl)-3-phenyl-1H-pyrazolo[3,4-d]pyrimidin-4-amine hydrochloride], the melting point was in the range of 129 to 132 °C.

Turning to `CCC(C)Sc1nc(NCc2ccccc2)c2cnn(CC(Cl)c3ccccc3)c2n1` (stereo not drawn) [Si146, N-benzyl-6-(sec-butylthio)-1-(2-chloro-2-phenylethyl)-1H-pyrazolo[3,4-d]pyrimidin-4-amine], the melting point was 112 to 113 °C.

Regarding `CCC(C)Sc1nc(NCCc2ccccc2)c2cnn(CC(Cl)c3ccccc3)c2n1` (stereo not drawn) [Si147, 6-(Sec-butylthio)-1-(2-chloro-2-phenylethyl)-N-(2-phenylethyl)-1H-pyrazolo[3,4-d]pyrimidin-4-amine], the melting point was in the range of 97 to 98 °C.

Turning to `CC(Cn1nc(-c2ccccc2)c2c(N)ncnc21)c1ccccc1` (stereo not drawn) [Si312, 3-Phenyl-1-(2-phenylpropyl)-1H-pyrazolo[3,4-d]pyrimidin-4-amine], the melting point lay within 105 to 109 °C. Also, the “decreased Fyn activity on substitution of chlorine by methyl in N1 side chain” value at recombinant Fyn was “about 10 fold”.

The compound `CC(=O)c1ccc(-c2nn(CC(C)c3ccccc3)c3ncnc(N)c23)cc1` (stereo not drawn) [Si336, 1-{4-[4-Amino-1-(2-phenylpropyl)-1H-pyrazolo[3,4-d]pyrimidin-3-yl]phenyl}ethanone] yielded a melting point of 232 to 235 °C.

A word on the pKi: it is −log10 of the Ki, conventionally taken in molar units. Compound `Cc1ccc(-c2nn(CC(C)c3ccccc3)c3ncnc(N)c23)cc1` (stereo not drawn) [Si338, 3-(4-Methylphenyl)-1-(2-phenylpropyl)-1H-pyrazolo[3,4-d]pyrimidin-4-amine] registered a melting point of 152 to 155 °C. Besides, the “decreased Fyn activity on substitution of chlorine by methyl in N1 side chain” value on recombinant Fyn (Si312 vs Si244, Si337 vs Si308, Si338 vs Si309) was “about 10 fold”. For the same compound, the negative-log Ki (pKi) on recombinant Fyn (read-out: Ki Fyn) is 6.00.

As a reminder, the solubility is the dissolved amount per volume that the medium holds. What is called thermodynamic solubility is solubility found after equilibrating the solid with the medium. What is called Papp is a coefficient for how fast a substance crosses the barrier. A higher Papp goes with fast passage. On to `CN1CCN(CCOC(=O)N(Cc2ccccc2)c2ncnc3c2cnn3CC(Cl)c2ccccc2)CC1` (stereo not drawn) [proS13, 2-(4-Methylpiperazin-1-yl)ethyl benzyl(1-(2-chloro-2-phenylethyl)-1H-pyrazolo[3,4-d]pyrimidin-4-yl)carbamate], for which the half-life at 500 μM in series [1] (setting [5]) was more than 48 h. In series [1] (setting [6]), the half-life at 500 μM is more than 48 h. For the same compound, the half-life at 100 μM in series [2] (setting [7]) is more than 48 h. In “Water solubility assay”, this compound had a solubility at 24 h of 35.5 µM (≈ 18.9 µg/mL) and a thermodynamic solubility at 24 h of 18.8 µg/mL (≈ 35.2 µM). For the same compound, in “PAMPA, BBB permeability”, the “PAMPA BBB (MR %)” value was “(45.6) %” and the apparent permeability (Papp) at 5 h, 0.5 mM is 5.01 ×10⁻⁶ cm/s. For the same compound, the “Metabolic Stab. %” value in series [3] was found to be 86.4%. In series [4], the “PAMPA GI (MR %)” value is on record as “(40.1) %” and the apparent permeability (Papp) at 5 h, 0.5 mM amounted to 6.7 ×10⁻⁶ cm/s.

On to `CSc1nc(N(CCc2ccccc2)C(=O)OCCN2CCN(C)CC2)c2cnn(CC(Cl)c3ccccc3)c2n1` (stereo not drawn) [proSi35, 2-(4-methylpiperazin-1-yl)ethyl (1-(2-chloro-2-phenylethyl)-6-(methylthio)-1H-pyrazolo[3,4-d]pyrimidin-4-yl)(phenethyl)carbamate], for which, in series [1] (setting [5]), the half-life at 500 μM was more than 48 h. Also, in series [1] (setting [6]), the half-life at 500 μM was more than 48 h. Also, in series [2] (setting [7]), the half-life at 100 μM is 35.3 h. For the same compound, in the series “Water solubility assay”, the concentration in solution (solubility at 24 h) was 182 µM (≈ 108 µg/mL) and the thermodynamic solubility at 24 h is 107 µg/mL (≈ 180 µM). Further, in the series “PAMPA, BBB permeability”, the “PAMPA BBB (MR %)” value is “(88.8) %” and the Papp at 5 h, 0.5 mM came out at 0.01 ×10⁻⁶ cm/s. Further, in series [4], the “PAMPA GI (MR %)” value is reported as “(86.1) %” and the Papp at 5 h, 0.5 mM was determined as 0.85 ×10⁻⁶ cm/s.

For the compound `CSc1nc(N(C(=O)OCCN2CCN(C)CC2)c2cccc(Cl)c2)c2cnn(CC(Cl)c3ccccc3)c2n1` (stereo not drawn) [proSi83, 2-(4-Methylpiperazin-1-yl)ethyl (1-(2-chloro-2-phenylethyl)-6-(methylthio)-1H-pyrazolo[3,4-d]pyrimidin-4-yl)(3-chlorophenyl)carbamate], the half-life at 500 μM in series [1] (setting [5]) was more than 48 h. The half-life at 500 μM in series [1] (setting [6]) is more than 48 h. Further, the half-life at 100 μM in series [2] (setting [7]) is 3.28 h. In the series “Water solubility assay”, this compound registered a solubility at 24 h of 7.08 µM (≈ 4.25 µg/mL) and a thermodynamic solubility at 24 h of 4.22 µg/mL (≈ 7.03 µM). In “PAMPA, BBB permeability”, the “PAMPA BBB (MR %)” value is on record as “(47.0) %” and the Papp at 5 h, 0.5 mM amounted to 4.14 ×10⁻⁶ cm/s. In addition, in series [4], the “PAMPA GI (MR %)” value is listed as “(44.7) %” and the Papp at 5 h, 0.5 mM amounted to 4.95 ×10⁻⁶ cm/s.

`CSc1nc(N(C(=O)OCCN2CCN(C)CC2)c2cccc(Cl)c2)c2cnn(CCc3ccccc3)c2n1` [proSi214, 2-(4-Methylpiperazin-1-yl)ethyl (3-chlorophenyl)(6-(methylthio)-1-phenethyl-1H-pyrazolo[3,4-d]pyrimidin-4-yl)carbamate]: in series [1] (setting [5]), the half-life at 500 μM was more than 48 h. Further, the half-life at 500 μM in series [1] (setting [6]) was more than 48 h. In addition, the half-life at 100 μM in series [2] (setting [7]) is 3.67 h. Also, in “Water solubility assay”, the concentration in solution (solubility at 24 h) was 11.2 µM (≈ 6.35 µg/mL) and the thermodynamic solubility at 24 h is 6.32 µg/mL (≈ 11.2 µM). For the same compound, in the series “PAMPA, BBB permeability”, the “PAMPA BBB (MR %)” value is listed as “(49.7) %” and the Papp at 5 h, 0.5 mM was found to be 4.3 ×10⁻⁶ cm/s. Besides, in series [4], the “PAMPA GI (MR %)” value is on record as “(63.1) %” and the apparent permeability coefficient (Papp) at 5 h, 0.5 mM amounted to 4.69 ×10⁻⁶ cm/s.

In the case of `CN1CCN(CCOC(=O)N(Cc2ccccc2Cl)c2ncnc3c2cnn3CC(Cl)c2ccc(Br)cc2)CC1` (stereo not drawn) [proSi221, 2-(4-Methylpiperazin-1-yl)ethyl (1-(2-(4-bromophenyl)-2-chloroethyl)-1H-pyrazolo[3,4-d]pyrimidin-4-yl)(2-chlorobenzyl)carbamate], the half-life at 500 μM in series [1] (setting [5]) is more than 48 h. Also, in series [1] (setting [6]), the half-life at 500 μM was more than 48 h. In addition, in series [2] (setting [7]), the half-life at 100 μM was more than 48 h. In the series “Water solubility assay”, this compound returned a solubility at 24 h of 3.09 µM (≈ 2 µg/mL) and a solubility (thermodynamic) at 24 h of 1.95 µg/mL (≈ 3.01 µM). In the series “PAMPA, BBB permeability”, the “PAMPA BBB (MR %)” value is on record as “(79.4) %” and the Papp at 5 h, 0.5 mM amounted to 1.92 ×10⁻⁶ cm/s. In series [4], the “PAMPA GI (MR %)” value is listed as “(78.1) %” and the apparent permeability (Papp) at 5 h, 0.5 mM came to 2.38 ×10⁻⁶ cm/s.

Consider `CSc1nc(N(C(=O)OC(C)CN2CCN(C)CC2)c2cccc(Br)c2)c2cnn(CC(C)c3ccccc3)c2n1` (stereo not drawn) [proSi278 (B), 1-(4-Methylpiperazin-1-yl)propan-2-yl (3-bromophenyl)(6-(methylthio)-1-(2-phenylpropyl)-1H-pyrazolo[3,4-d]pyrimidin-4-yl)carbamate], for which the half-life at 500 μM in series [1] (setting [5]) was more than 48 h. Besides, the half-life at 500 μM in series [1] (setting [6]) is more than 48 h. In series [2] (37° C.), the “Stability Human Plasma t1/2” value stood at 10.40 h. Besides, in series [2] (setting [8]), the half-life at 100 μM is 10.4 h. In the series “Water solubility assay”, the solubility at 24 h was 5.37 µM (≈ 3.43 µg/mL) and the solubility (thermodynamic) at 24 h came to 3.4 µg/mL (≈ 5.32 µM). For the same compound, in the series “PAMPA, BBB permeability”, the “PAMPA BBB (MR %)” value is given as “(70.6) %” and the Papp at 5 h, 0.5 mM is 2.39 ×10⁻⁶ cm/s. In series [4], the “PAMPA GI (MR %)” value was “(73.3) %” and the Papp at 5 h, 0.5 mM is 2.15 ×10⁻⁶ cm/s.

Consider `CCC(CN1CCN(C)CC1)OC(=O)N(c1cccc(Br)c1)c1nc(SC)nc2c1cnn2CC(C)c1ccccc1` (stereo not drawn) [proSi278 (C), 1-(4-Methylpiperazin-1-yl)butan-2-yl (3-bromophenyl)(6-(methylthio)-1-(2-phenylpropyl)-1H-pyrazolo[3,4-d]pyrimidin-4-yl)carbamate], for which the half-life at 500 μM in series [1] (setting [5]) was more than 48 h. Further, the half-life at 500 μM in series [1] (setting [6]) was more than 48 h. In addition, the “Stability Human Plasma t1/2” value in series [2] (37° C.) was determined as 11.31 h. The half-life at 100 μM in series [2] (setting [8]) was 11.3 h. In the series “Water solubility assay”, this compound had a solubility at 24 h of 3.02 µM (≈ 1.97 µg/mL) and a thermodynamic solubility at 24 h of 1.96 µg/mL (≈ 3 µM). In “PAMPA, BBB permeability”, the “PAMPA BBB (MR %)” value is “(91.4) %” and the apparent permeability (Papp) at 5 h, 0.5 mM was 0.93 ×10⁻⁶ cm/s. In addition, in series [4], the “PAMPA GI (MR %)” value is reported as “(88.1) %” and the Papp at 5 h, 0.5 mM stood at 1.45 ×10⁻⁶ cm/s.
